From PMC6704710, “Preclinical evaluation of 3D185, a novel potent inhibitor of FGFR1/2/3 and CSF-1R, in FGFR-dependent and macrophage-dominant cancer models” (Journal of Experimental & Clinical Cancer Research : CR, 2019)
pIC50: −log10 of the molar value.

What was measured:
Experiment in all cases: Eurofins kinase panel
Format in all cases: biochemical
CaMKK1(h) = biological target: T1, CaMKK1(h) (Homo sapiens, UniProt Q8N5S9); conditions: read-out: Inhibition rate (%)
T1 construct: purchased Eurofins (KinaseProfiler)
T1 sequence (Q8N5S9 whole entry): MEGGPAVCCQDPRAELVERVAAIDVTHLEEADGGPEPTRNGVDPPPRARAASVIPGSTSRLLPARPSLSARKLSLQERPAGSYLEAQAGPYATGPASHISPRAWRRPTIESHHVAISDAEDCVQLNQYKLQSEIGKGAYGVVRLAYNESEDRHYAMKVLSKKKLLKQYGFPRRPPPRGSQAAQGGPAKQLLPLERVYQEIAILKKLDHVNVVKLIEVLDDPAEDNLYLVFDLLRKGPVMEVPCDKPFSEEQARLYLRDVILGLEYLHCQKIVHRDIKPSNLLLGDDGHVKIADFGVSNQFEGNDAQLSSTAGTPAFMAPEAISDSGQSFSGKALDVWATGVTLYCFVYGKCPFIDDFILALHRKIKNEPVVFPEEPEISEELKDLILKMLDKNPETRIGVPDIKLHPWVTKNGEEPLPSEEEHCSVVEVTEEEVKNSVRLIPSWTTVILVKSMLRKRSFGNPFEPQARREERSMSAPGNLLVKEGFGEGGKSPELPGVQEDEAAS

DYRK1A(h) = biological target: T2, DYRK1A(h) (Homo sapiens, UniProt Q13627); conditions: read-out: Inhibition rate (%)
T2 construct: purchased Eurofins (KinaseProfiler)

FGFR3(h) = FGFR3(h) (Homo sapiens, UniProt P22607)
FGFR3(h), sequence (P22607 23-806): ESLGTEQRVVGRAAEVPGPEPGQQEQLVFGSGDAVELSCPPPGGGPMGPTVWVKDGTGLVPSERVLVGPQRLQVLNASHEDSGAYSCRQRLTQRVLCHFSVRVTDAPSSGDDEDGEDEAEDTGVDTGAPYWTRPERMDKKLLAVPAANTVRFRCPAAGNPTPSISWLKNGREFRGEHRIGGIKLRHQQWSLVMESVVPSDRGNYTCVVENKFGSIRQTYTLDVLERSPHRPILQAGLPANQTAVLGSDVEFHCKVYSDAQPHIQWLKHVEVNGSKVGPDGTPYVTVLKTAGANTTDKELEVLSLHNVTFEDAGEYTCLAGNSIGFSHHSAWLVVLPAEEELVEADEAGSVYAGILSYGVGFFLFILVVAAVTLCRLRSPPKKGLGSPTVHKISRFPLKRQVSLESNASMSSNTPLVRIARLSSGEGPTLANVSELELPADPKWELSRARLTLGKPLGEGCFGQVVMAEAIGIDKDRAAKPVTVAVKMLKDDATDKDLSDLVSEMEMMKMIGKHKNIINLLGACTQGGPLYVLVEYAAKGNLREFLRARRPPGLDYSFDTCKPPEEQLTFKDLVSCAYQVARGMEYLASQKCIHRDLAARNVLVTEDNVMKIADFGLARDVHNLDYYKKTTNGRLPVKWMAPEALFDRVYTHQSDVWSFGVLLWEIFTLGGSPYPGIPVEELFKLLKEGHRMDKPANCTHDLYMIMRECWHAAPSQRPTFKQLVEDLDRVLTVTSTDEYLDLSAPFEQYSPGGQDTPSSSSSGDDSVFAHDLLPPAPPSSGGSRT

Fyn(h) = biological target: T3, Fyn(h) (Homo sapiens, UniProt P06241); conditions: read-out: Inhibition rate (%)
T3 construct: purchased Eurofins (KinaseProfiler)
T3 sequence (P06241 whole entry): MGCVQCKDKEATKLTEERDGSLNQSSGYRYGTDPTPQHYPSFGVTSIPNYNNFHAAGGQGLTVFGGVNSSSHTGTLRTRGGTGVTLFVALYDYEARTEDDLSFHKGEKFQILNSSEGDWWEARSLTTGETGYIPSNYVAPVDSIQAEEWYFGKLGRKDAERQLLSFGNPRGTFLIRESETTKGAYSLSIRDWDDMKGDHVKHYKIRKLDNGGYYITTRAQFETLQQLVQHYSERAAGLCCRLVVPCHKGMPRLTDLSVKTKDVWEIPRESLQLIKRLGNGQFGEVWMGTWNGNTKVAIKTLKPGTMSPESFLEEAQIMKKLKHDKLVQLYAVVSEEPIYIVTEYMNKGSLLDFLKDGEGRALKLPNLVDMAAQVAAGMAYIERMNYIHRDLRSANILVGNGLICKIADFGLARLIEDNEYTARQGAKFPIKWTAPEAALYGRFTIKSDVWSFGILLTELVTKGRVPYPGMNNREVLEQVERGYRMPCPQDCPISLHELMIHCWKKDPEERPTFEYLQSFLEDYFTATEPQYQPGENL

Hck(h) activated = biological target: T4, Hck(h) activated (Homo sapiens, UniProt P08631); conditions: read-out: Inhibition rate (%)
T4 construct: purchased Eurofins (KinaseProfiler)
T4 sequence (P08631 whole entry): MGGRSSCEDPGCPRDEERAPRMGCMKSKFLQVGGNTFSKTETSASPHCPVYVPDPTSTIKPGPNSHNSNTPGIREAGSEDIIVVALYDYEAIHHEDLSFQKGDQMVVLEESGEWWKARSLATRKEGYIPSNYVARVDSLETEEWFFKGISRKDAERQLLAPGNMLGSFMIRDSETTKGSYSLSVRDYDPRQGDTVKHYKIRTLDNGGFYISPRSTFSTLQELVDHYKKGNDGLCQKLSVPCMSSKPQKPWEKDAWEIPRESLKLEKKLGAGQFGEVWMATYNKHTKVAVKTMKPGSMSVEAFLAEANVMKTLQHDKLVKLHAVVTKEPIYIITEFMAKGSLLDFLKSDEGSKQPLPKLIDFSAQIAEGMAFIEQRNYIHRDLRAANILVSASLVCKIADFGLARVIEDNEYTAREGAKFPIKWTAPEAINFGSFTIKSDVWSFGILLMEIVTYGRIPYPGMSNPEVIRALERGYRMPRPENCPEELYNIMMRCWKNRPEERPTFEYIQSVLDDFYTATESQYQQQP

MAPKAP-K3(h) = biological target: T5, MAPKAP-K3(h) (Homo sapiens, UniProt Q16644); conditions: read-out: Inhibition rate (%)
T5 construct: purchased Eurofins (KinaseProfiler)

MINK(h) = biological target: T6, MINK(h) (Homo sapiens, UniProt Q8N4C8); conditions: read-out: Inhibition rate (%)
T6 construct: purchased Eurofins (KinaseProfiler)
T6 sequence (Q8N4C8 whole entry): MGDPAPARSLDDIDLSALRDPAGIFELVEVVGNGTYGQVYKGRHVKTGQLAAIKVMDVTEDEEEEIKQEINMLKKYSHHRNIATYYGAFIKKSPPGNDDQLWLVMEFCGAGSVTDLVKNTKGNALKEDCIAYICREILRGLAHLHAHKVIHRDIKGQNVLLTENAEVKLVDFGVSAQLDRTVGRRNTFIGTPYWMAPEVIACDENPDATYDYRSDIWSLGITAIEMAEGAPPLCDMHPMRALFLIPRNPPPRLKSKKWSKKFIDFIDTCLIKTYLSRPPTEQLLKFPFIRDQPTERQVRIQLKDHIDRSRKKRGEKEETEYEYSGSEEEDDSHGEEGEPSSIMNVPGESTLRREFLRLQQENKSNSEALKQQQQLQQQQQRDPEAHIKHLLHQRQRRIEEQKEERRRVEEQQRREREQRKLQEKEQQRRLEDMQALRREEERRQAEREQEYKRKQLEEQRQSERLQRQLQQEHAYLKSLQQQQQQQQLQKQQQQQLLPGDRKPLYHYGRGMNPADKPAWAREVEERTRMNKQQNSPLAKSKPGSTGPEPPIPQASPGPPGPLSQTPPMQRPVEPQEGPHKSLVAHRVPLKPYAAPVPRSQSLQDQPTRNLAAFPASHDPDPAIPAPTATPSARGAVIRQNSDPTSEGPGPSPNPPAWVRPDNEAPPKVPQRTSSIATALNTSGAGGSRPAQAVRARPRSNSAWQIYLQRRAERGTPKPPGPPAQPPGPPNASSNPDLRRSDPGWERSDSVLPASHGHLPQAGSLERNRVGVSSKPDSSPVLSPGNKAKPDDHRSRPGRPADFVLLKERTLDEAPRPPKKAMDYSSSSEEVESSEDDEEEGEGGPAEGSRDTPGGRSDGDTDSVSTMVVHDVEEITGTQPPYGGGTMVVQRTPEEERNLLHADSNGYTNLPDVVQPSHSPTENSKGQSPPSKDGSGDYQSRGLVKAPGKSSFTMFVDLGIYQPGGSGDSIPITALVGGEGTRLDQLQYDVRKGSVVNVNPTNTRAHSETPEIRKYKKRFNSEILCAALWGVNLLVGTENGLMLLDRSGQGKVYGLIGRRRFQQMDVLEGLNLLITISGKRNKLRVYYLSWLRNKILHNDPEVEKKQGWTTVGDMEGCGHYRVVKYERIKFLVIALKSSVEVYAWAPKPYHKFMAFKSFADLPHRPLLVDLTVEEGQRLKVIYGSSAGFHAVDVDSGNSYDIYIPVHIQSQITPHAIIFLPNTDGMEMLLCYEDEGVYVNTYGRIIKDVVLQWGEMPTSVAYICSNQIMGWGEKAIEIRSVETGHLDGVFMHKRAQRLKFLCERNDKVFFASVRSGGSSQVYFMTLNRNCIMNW

ROCK-I(h) = biological target: T7, ROCK-I(h) (Homo sapiens, UniProt Q13464); conditions: read-out: Inhibition rate (%)
T7 construct: purchased Eurofins (KinaseProfiler)
T7 sequence (Q13464 whole entry): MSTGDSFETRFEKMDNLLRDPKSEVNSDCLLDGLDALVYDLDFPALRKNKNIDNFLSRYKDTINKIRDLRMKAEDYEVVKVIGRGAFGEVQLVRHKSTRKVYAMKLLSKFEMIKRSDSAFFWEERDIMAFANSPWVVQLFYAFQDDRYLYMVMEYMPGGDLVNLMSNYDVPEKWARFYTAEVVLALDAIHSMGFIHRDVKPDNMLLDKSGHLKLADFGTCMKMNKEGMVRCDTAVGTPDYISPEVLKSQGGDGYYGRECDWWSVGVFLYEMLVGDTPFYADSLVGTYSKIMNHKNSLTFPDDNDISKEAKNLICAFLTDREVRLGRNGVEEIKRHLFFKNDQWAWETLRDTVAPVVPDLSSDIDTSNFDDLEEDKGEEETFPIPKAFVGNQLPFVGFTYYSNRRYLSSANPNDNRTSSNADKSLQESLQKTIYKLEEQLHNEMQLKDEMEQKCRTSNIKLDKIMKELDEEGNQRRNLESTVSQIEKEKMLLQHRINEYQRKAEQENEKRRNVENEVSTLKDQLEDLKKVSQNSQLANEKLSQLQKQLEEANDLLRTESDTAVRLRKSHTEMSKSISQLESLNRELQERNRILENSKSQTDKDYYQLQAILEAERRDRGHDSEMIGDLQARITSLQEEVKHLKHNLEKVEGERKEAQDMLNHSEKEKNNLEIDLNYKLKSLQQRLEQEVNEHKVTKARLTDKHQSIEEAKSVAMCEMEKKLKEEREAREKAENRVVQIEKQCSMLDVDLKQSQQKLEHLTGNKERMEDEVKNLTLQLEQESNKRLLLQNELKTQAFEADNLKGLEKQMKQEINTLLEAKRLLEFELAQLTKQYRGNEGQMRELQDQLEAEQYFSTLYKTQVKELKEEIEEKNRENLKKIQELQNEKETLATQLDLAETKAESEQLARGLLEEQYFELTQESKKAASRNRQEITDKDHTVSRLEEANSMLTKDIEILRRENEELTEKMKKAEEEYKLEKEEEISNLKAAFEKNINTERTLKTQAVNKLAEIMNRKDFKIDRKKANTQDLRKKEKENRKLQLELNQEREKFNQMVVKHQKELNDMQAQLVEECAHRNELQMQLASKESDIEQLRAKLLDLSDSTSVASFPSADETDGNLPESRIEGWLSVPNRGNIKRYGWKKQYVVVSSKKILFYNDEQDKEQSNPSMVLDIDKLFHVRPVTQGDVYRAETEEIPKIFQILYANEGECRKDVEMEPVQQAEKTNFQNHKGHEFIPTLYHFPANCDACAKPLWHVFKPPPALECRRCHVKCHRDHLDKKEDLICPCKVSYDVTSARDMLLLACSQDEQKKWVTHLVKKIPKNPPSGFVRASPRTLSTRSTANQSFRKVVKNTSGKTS

Ret(h) = biological target: T8, Ret(h) (Homo sapiens, UniProt P07949); conditions: read-out: Inhibition rate (%)
T8 construct: purchased Eurofins (KinaseProfiler)

TAK1(h) = biological target: T9, TAK1(h) (Homo sapiens, UniProt O43318); conditions: read-out: Inhibition rate (%)
T9 construct: purchased Eurofins (KinaseProfiler)
T9 sequence (O43318 1-303 limits assumed): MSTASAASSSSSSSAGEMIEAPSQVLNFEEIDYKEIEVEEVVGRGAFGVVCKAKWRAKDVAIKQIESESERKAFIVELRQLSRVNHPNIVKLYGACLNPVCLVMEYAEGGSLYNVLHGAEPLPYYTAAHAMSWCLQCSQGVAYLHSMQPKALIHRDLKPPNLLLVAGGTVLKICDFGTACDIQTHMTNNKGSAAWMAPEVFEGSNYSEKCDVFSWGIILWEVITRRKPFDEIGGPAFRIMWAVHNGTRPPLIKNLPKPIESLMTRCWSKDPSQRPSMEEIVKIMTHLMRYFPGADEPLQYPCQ

TTK(h) = biological target: T10, TTK(h) (Homo sapiens, UniProt P33981); conditions: read-out: Inhibition rate (%)
T10 construct: purchased Eurofins (KinaseProfiler)
T10 sequence (P33981 1-857): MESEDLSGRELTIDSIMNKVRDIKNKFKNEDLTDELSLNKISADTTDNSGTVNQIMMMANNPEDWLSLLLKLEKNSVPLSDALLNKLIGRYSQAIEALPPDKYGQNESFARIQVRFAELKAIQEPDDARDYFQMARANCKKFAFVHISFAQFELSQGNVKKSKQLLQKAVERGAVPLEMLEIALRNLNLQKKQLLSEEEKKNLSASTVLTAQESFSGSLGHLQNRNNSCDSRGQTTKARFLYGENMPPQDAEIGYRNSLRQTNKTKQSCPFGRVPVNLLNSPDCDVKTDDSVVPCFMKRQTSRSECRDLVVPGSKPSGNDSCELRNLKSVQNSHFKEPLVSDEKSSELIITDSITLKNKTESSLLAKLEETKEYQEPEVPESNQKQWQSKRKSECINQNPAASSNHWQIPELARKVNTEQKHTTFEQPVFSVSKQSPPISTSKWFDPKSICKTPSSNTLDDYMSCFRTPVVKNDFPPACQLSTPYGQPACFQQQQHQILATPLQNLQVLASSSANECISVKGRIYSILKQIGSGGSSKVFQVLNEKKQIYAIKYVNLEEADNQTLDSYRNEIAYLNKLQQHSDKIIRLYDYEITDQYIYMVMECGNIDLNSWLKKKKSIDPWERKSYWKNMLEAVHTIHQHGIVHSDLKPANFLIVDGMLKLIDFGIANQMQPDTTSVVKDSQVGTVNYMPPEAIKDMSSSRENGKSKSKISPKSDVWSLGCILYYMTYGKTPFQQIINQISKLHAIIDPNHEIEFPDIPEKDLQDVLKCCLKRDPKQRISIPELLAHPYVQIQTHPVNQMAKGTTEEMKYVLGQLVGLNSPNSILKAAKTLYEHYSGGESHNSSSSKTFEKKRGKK

`COc1cc(OC)c(Cl)c(-c2ccc3c(NC(=O)c4ccc(N5CCNC(C)(C)C5)cc4)n[nH]c3n2)c1Cl` [3D185] was tested, and the inhibition at 0.01 µM (CaMKK1(h); 10 nM) was -1%, the inhibition at 0.1 µM (CaMKK1(h); 100 nM) was 5% and the inhibition at 1 µM (CaMKK1(h); 1000 nM) was 35%. The inhibition at 0.01 µM (DYRK1A(h); 10 nM) was -4%, the inhibition at 0.1 µM (DYRK1A(h); 100 nM) was 1% and the inhibition at 1 µM (DYRK1A(h); 1000 nM) was 5%. For the same compound, the pIC50 (FGFR3(h); estimated from 372-kinase panel) was > 8.00, the inhibition at 0.01 µM (FGFR3(h); read-out: Inhibition rate (%)) was 94% and the inhibition at 0.1 µM (FGFR3(h); read-out: Inhibition rate (%)) was 99%. It also gave an inhibition at 1 µM (FGFR3(h); read-out: Inhibition rate (%)) of 100%, an inhibition at 0.01 µM (Fyn(h); 10 nM) of 8% and an inhibition at 0.1 µM (Fyn(h); 100 nM) of 27%. It also gave an inhibition at 1 µM (Fyn(h); 1000 nM) of 80%, an inhibition at 0.01 µM (Hck(h) activated; 10 nM) of 6% and an inhibition at 0.1 µM (Hck(h) activated; 100 nM) of 44%. It also gave an inhibition at 1 µM (Hck(h) activated; 1000 nM) of 87%, an inhibition at 0.01 µM (MAPKAP-K3(h); 10 nM) of 8% and an inhibition at 0.1 µM (MAPKAP-K3(h); 100 nM) of 17%. The inhibition at 1 µM (MAPKAP-K3(h); 1000 nM) was 19%, the inhibition at 0.01 µM (MINK(h); 10 nM) was 28% and the inhibition at 0.1 µM (MINK(h); 100 nM) was 68%. It also gave an inhibition at 1 µM (MINK(h); 1000 nM) of 90%, an inhibition at 0.01 µM (ROCK-I(h); 10 nM) of -2% and an inhibition at 0.1 µM (ROCK-I(h); 100 nM) of -12%. The inhibition at 1 µM (ROCK-I(h); 1000 nM) was -3%, the inhibition at 0.01 µM (Ret(h); 10 nM) was 8% and the inhibition at 0.1 µM (Ret(h); 100 nM) was 27%. It also gave an inhibition at 1 µM (Ret(h); 1000 nM) of 80%, an inhibition at 0.01 µM (TAK1(h); 10 nM) of -6% and an inhibition at 0.1 µM (TAK1(h); 100 nM) of 11%. For the same compound, the inhibition at 1 µM (TAK1(h); 1000 nM) was 13%, the inhibition at 0.01 µM (TTK(h); 10 nM) was 5% and the inhibition at 0.1 µM (TTK(h); 100 nM) was -2%. It also gave an inhibition at 1 µM (TTK(h); 1000 nM) of 12%.
